Assay results taken from patent US9675595B2, “Synergistic combinations of PI3K- and MEK-inhibitors” (Novartis AG, priority 2011, dated 2017).
pIC50: −log10 of the molar value. Like-named read-outs stand apart in the source and are kept apart here. Each block holds one compound with its values, some of them ahead of it.

Assays:
Experiment in all cases: Cell viability (CellTiterGlo, 72 h), Example 1
Assay type in all cases: cell-based
LS411N = conditions: Homo sapiens, LS-411N, single agent
Source text: (§1) The colorectal cancer cell lines SW1417, COLO 205, LS411N, HT-29, RKO, OUMS-23, SW620, LoVo, SW480, SW837, COLO-678, LS123-NCI—H747, HCT-15, HCT116, DLD-1, T84, SW948, LS180, GP2d, HuTu 80, CW-2, SW48, NCI—H716, C2Bbe1, SNU—C1 and KM12 are obtained from the American Type Culture Collection (ATCC) and maintained in their respective culture medium as specified by the provider. These colorectal cancer cell lines have the following mutation status:
(§2) For assessment of combination effects, cells are seeded into 384-well plates at 500 cells/well and incubated overnight. The contents of the compound master plates are pre-diluted with 1:200 (1 μL compound solution to 200 μL cell […] culture medium containing 10% fetal clf serum) before transferring 5 μL of this pre-dilution to the cell plates containing 20 μL cell culture medium, to achieve the targeted final compound concentrations as well as a vehicle (DMSO) concentration of 0.09%.
(§3) Effects of single agents as well as their checkerboard combinations on cell viability are assessed after 72 hours of incubation at 37° C./5% CO2 by quantification of cellular ATP levels (CellTiterGlo, Promega) using 25 μL reagent/well and n=2 repliate plates per condition. The number/viability of cells at the time of compound addition was likewise assessed and used to estimate the population doubling time of the particular cell line. Single agent IC50s are calculated using standard four-parametric curve fitting (SLFit, model 205). Potential synergistic interactions between compound combinations are assessed using the Excess Inhibition 2D matrix according to the Loewe additivity model and are reported as Synergy Score. In addition, compound combinations are assessed by combination index analysis derived from isobologram graphs at 50% inhibition, and are reported as best combination index (CI), which corresponds to the lowest value on the isobologram. All synergy calculations are performed using CHALICE software (Lehár et al, Nat Biotechnol. (July 2009), 27(4): […]).

COLO-678 = conditions: Homo sapiens, single agent
Source text: as §1, §2, §3

T84 = conditions: Homo sapiens, duplicate data points and dose response display some scatter, single agent
Source text: as §1, §2, §3

SW837 = conditions: Homo sapiens, single agent
Source text: as §1, §2, §3

SW1417 = conditions: Homo sapiens, single agent
Source text: as §1, §2, §3

SW948 = conditions: Homo sapiens, duplicate data points and dose response display some scatter, single agent
Source text: as §1, §2, §3

SW48 = conditions: Homo sapiens, single agent
Source text: as §1, §2, §3

LS123 = conditions: Homo sapiens, LS-123, single agent
Source text: as §1, §2, §3

NCI-H716 = conditions: Homo sapiens, single agent
Source text: as §1, §2, §3

OUMS-23 = conditions: single agent
Source text: as §1, §2, §3

HCT 116 = conditions: Homo sapiens, HCT-116, 72 h
Source text: as §1, §2, §3

RKO = conditions: Homo sapiens, single agent
Source text: as §1, §2, §3

HuTu 80 = conditions: Homo sapiens, HuTu80, single agent
Source text: as §1, §2, §3

COLO205 = conditions: Homo sapiens, COLO 205, single agent
Source text: as §1, §2, §3

GP2d = conditions: single agent
Source text: as §1, §2, §3

HCT-15 = conditions: Homo sapiens, single agent
Source text: as §1, §2, §3

SNU-C1 = conditions: Homo sapiens, single agent
Source text: as §1, §2, §3

C2BBe1 = conditions: Homo sapiens, single agent
Source text: as §1, §2, §3

DLD-1 = conditions: Homo sapiens, single agent
Source text: as §1, §2, §3

LoVo = conditions: Homo sapiens, single agent
Source text: as §1, §2, §3

pIC50 (COLO-678; read-out: Cmpd. A IC50): < 4.97 | pIC50 (SW837; read-out: Cmpd. A IC50): 5.14 | pIC50 (SW1417; read-out: Cmpd. A IC50): 5.11 | pIC50 (SW948; read-out: Cmpd. A IC50): 5.92 | pIC50 (SW48; read-out: Cmpd. A IC50): 5.85 | pIC50 (NCI-H716; read-out: Cmpd. A IC50): < 4.97 | pIC50 (HCT 116; HCT 116*, repeat experiment performed at end of study, single agent, read-out: Cmpd. A IC50): 5.08 | pIC50 (HCT 116; HCT 116, single agent, read-out: Cmpd. A IC50): 5.03 | pIC50 (COLO205; read-out: Cmpd. A IC50): < 4.97 | pIC50 (HCT-15; read-out: Cmpd. A IC50): 5.17 | pIC50 (SNU-C1; read-out: Cmpd. A IC50): 5.61 | pIC50 (DLD-1; read-out: Cmpd. A IC50): < 4.97 | pIC50 (LoVo; read-out: Cmpd. A IC50): 5.06
SMILES: Cc1nc(NC(=O)N2CCC[C@H]2C(N)=O)sc1-c1ccnc(C(C)(C)C(F)(F)F)c1 [COMPOUND A, (S)-pyrrolidine-1,2-dicarboxylic acid 2-amide 1-({4-methyl-5-[2-(2,2,2-trifluoro-1,1-dimethyl-ethyl)-pyridin-4-yl]-thiazol-2-yl}-amide)]
pIC50 (LS411N; read-out: Cmpd. A IC50): 5.06 | pIC50 (T84; read-out: Cmpd. A IC50): 5.38 | pIC50 (LS123; read-out: Cmpd. A IC50): 5.14 | pIC50 (OUMS-23; read-out: Cmpd. A IC50): < 4.97 | pIC50 (RKO; read-out: Cmpd. A IC50): 5.17 | pIC50 (HuTu 80; read-out: Cmpd. A IC50): 5.05 | pIC50 (GP2d; read-out: Cmpd. A IC50): 6.16 | pIC50 (C2BBe1; read-out: Cmpd. A IC50): 5.04

pIC50 (COLO-678; read-out: Cmpd. B IC50): 5.77 | pIC50 (SW837; read-out: Cmpd. B IC50): 6.25 | pIC50 (SW1417; read-out: Cmpd. B IC50): 7.27 | pIC50 (SW948; read-out: Cmpd. B IC50): 7.05 | pIC50 (SW48; read-out: Cmpd. B IC50): 7.11 | pIC50 (NCI-H716; read-out: Cmpd. B IC50): < 5.57 | pIC50 (HCT 116; HCT 116*, repeat experiment performed at end of study, single agent, read-out: Cmpd. B IC50): 6.13 | pIC50 (HCT 116; HCT 116, single agent, read-out: Cmpd. B IC50): 6.06 | pIC50 (COLO205; read-out: Cmpd. B IC50): 7.46 | pIC50 (HCT-15; read-out: Cmpd. B IC50): < 5.57 | pIC50 (SNU-C1; read-out: Cmpd. B IC50): 7.82 | pIC50 (DLD-1; read-out: Cmpd. B IC50): < 5.57 | pIC50 (LoVo; read-out: Cmpd. B IC50): 6.83
SMILES: Cn1cnc2c(F)c(Nc3ccc(Br)cc3F)c(C(=O)NOCCO)cc21 [COMPOUND B, 6-(4-bromo-2-fluorophenylamino)-7-fluoro-3-methyl-3H-benzoimidazole-5-carboxylic acid (2-hydroxyethoxy)-amide]
pIC50 (LS411N; read-out: Cmpd. B IC50): 7.26 | pIC50 (T84; read-out: Cmpd. B IC50): 4.89 | pIC50 (LS123; read-out: Cmpd. B IC50): 5.64 | pIC50 (OUMS-23; read-out: Cmpd. B IC50): < 5.57 | pIC50 (RKO; read-out: Cmpd. B IC50): < 5.57 | pIC50 (HuTu 80; read-out: Cmpd. B IC50): < 5.57 | pIC50 (GP2d; read-out: Cmpd. B IC50): 6.12 | pIC50 (C2BBe1; read-out: Cmpd. B IC50): 5.80
